Publication PMC3400123 (Bioorganic & medicinal chemistry, 2012)

Assays:
human P-gp-His10 = human P-gp-His10 (Homo sapiens, UniProt P08183); assay: Stimulation of ATPase activity of isolated human P-gp-His10; details: read-out: KM (concentration of compound required to achieve 50% maximal stimulation); isolated human P-gp-His10 in sheep brain phosphatidylethanolamine
MDCKII-MDR1 cells = assay: Transport and cell association across MDCKII-MDR1 monolayers; assay type: in vitro ADME; details: for PAB (+ inh): absorptive direction; for PAB (+ inh) / PBA (+ inh): with 5 × 10^−6 M LSN 335984, 5 × 10^−6 M dye, BSA; for Ratio (+/− inh) for % cell associated dye: inhibited / uninhibited pump; for PBA / PBA (+ inh): secretory direction; for PBA: no inhibitor, 5 × 10^−6 M dye, 4.3 mg mL^−1 BSA

human P-gp-His10, sequence (P08183 whole entry): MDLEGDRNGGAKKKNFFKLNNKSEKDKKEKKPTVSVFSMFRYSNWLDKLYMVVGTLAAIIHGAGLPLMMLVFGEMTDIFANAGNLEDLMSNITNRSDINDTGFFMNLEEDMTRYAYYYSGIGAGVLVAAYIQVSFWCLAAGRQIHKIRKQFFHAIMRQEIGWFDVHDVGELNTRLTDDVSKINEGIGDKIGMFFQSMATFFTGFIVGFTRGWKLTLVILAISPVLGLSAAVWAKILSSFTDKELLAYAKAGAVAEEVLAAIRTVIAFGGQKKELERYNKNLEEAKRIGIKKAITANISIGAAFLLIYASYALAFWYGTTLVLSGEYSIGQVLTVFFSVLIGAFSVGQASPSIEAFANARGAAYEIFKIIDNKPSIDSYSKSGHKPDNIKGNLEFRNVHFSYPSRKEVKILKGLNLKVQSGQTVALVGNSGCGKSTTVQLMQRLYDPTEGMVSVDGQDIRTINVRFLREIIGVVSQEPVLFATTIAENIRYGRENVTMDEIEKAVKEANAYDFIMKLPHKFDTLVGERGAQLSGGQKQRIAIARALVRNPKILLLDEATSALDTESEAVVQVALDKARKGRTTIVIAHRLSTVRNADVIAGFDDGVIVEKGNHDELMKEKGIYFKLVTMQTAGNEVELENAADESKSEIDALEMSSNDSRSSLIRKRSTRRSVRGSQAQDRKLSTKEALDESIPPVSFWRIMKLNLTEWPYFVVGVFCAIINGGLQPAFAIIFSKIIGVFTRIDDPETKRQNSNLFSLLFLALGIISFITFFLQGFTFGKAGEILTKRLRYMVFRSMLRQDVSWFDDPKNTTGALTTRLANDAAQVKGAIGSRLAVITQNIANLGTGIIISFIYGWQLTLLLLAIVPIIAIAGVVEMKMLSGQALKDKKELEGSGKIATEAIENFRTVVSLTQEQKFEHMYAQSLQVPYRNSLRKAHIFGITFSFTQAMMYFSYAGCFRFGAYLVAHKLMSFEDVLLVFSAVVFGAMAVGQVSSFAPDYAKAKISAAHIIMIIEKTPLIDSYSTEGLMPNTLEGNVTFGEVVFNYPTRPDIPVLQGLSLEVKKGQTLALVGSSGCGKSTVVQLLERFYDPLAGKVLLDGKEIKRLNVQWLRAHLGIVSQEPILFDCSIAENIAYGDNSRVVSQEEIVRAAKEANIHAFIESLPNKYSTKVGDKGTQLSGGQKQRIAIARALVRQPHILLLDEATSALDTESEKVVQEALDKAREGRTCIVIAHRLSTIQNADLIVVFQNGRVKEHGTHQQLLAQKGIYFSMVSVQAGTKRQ

Structure (SMILES) | Km (human P-gp-His10) | PAB (+ inh) (MDCKII-MDR1 cells) | Ratio (+/− inh) for % cell associated dye (MDCKII-MDR1 cells) | PBA (MDCKII-MDR1 cells) | PBA (+ inh) (MDCKII-MDR1 cells)
CCN(CC)C(=O)c1ccc(-c2c3ccc(N(C)C)cc3[s+]c3c4c5c(cc23)CCCN5CCC4)s1.F[P-](F)(F)(F)(F)F [Compound 5, 12-(dimethylamino)-2,3,6,7-tetrahydro-9-(5-(diethylcarbamoyl)thiophen-2-yl)-1H,5H-thioxantheno[2,3,4-ij]quinolizin-14-ium hexafluorophosphate] | 3.6 ± 0.4 µM | ≤ 1 ≤ 1 10^−9 m s^−1 | 3.3-6.1 | 210 ± 22 10^−9 m s^−1 | 17.0 ± 0.4 10^−9 m s^−1
CCN(CC)C(=S)c1ccc(-c2c3ccc(N(C)C)cc3[s+]c3cc(N(C)C)ccc23)s1.F[P-](F)(F)(F)(F)F [Compound 2, 3,6-bis(dimethylamino)-9-(5-(diethylcarbamothioyl)thiophen-2-yl)thioxanthylium hexafluorophosphate] | 5.8 ± 0.6 µM | ≤ 1 ≤ 1 10^−9 m s^−1 |  | 210 ± 17 10^−9 m s^−1 | 
CCN(CC)C(=O)c1ccc(-c2c3ccc(N(C)C)cc3[s+]c3cc(N(C)C)ccc23)s1 [Compound 1, 3,6-bis(dimethylamino)-9-(5-(diethylcarbamoyl)thiophen-2-yl)thioxan-thylium hexafluorophosphate] | 5.7 ± 1 µM |  |  |  | 
CCN(CC)C(=S)c1ccc(-[c+]2c3ccc(N(C)C)cc3sc3cc4c(cc32)C(C)(C)CCN4C)s1.F[P-](F)(F)(F)(F)F [Compound 10, 6-(5-(diethylcarbamothioyl)thiophen-2-yl)-9-(dimethylamino)-1,4,4-trimethyl-2,3,4,6-tetrahydro-1H-thiochromeno[3,2-g]quinolin-6-ylium hexafluorophosphate] | 3.1 ± 0.7 µM | ≤ 1 ≤ 1 10^−9 m s^−1 | 1.2-2.1 |  | 1.0 ± 0.1 10^−9 m s^−1
CCN(CC)C(=S)c1ccc(-c2c3ccc(N(C)C)cc3[s+]c3c4c5c(cc23)CCCN5CCC4)s1.F[P-](F)(F)(F)(F)F [Compound 6, 12-(Dimethylamino)-2,3,6,7-tetrahydro-9-(5-(diethylcarbamothioyl)-thiophen-2-yl)-1H,5H-thioxantheno[2,3,4-ij]quinolizin-14-ium hexafluorophosphate] | 2.3 ± 0.4 µM | ≤ 1 ≤ 1 10^−9 m s^−1 | 1.2-2.1 | 65.0 ± 1.5 10^−9 m s^−1 | 2.7 ± 0.1 10^−9 m s^−1
CCN(CC)C(=O)c1ccc(-[c+]2c3ccc(N(C)C)cc3sc3cc4c(cc32)C(C)(C)CCN4C)s1.F[P-](F)(F)(F)(F)F [Compound 9, 6-(5-(diethylcarbamoyl)thiophen-2-yl)-9-(dimethylamino)-1,4,4-trimethyl-2,3,4,6-tetrahydro-1H-thiochromeno[3,2-g]quinolin-6-ylium hexafluorophosphate] | 2.2 ± 1 µM | ≤ 1 ≤ 1 10^−9 m s^−1 | 3.3-6.1 | 370 ± 17 10^−9 m s^−1 | 27.0 ± 0.3 10^−9 m s^−1
CN(C)c1ccc2c(-c3ccc(C(=O)N4CCCCC4)s3)c3cc4c5c(c3[s+]c2c1)CCCN5CCC4.F[P-](F)(F)(F)(F)F [Compound 7, 12-(dimethylamino)-2,3,6,7-tetrahydro-9-(N-piperidyl-2-thienyl-5-carboxamido)-1H,5H-thioxantheno[2,3,4-ij]quinolizin-14-ium hexafluorophosphate] | 1.9 ± 0.4 µM | ≤ 1 ≤ 1 10^−9 m s^−1 | 3.3-6.1 | 220 ± 29 10^−9 m s^−1 | 8.1 ± 0.1 10^−9 m s^−1
